# In PubChem BioAssay AID602235 (The Scripps Research Institute Molecular Screening Center, 2012):
# Activity calls are given as the source filed them. The rule behind the calls is not given here.
# Molecular target: Nuclear receptor coactivator 1 (Homo sapiens) (UniProt Q15788)
# Experiment: inhibition of NCOA1 transcriptional coactivation in cells – cell-based, luciferase reporter, luminescence, dose response (AID 602235);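 note: cells transfected with pGL4.31 reporter plus pBIND-SRC1 vector; potency is for inhibitors that lower SRC1 reporter luminescence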
# Conditions: cell-based SRC1 luciferase reporter
# Sequence of Nuclear receptor coactivator 1 (Homo sapiens) (Q15788 whole entry, looked up): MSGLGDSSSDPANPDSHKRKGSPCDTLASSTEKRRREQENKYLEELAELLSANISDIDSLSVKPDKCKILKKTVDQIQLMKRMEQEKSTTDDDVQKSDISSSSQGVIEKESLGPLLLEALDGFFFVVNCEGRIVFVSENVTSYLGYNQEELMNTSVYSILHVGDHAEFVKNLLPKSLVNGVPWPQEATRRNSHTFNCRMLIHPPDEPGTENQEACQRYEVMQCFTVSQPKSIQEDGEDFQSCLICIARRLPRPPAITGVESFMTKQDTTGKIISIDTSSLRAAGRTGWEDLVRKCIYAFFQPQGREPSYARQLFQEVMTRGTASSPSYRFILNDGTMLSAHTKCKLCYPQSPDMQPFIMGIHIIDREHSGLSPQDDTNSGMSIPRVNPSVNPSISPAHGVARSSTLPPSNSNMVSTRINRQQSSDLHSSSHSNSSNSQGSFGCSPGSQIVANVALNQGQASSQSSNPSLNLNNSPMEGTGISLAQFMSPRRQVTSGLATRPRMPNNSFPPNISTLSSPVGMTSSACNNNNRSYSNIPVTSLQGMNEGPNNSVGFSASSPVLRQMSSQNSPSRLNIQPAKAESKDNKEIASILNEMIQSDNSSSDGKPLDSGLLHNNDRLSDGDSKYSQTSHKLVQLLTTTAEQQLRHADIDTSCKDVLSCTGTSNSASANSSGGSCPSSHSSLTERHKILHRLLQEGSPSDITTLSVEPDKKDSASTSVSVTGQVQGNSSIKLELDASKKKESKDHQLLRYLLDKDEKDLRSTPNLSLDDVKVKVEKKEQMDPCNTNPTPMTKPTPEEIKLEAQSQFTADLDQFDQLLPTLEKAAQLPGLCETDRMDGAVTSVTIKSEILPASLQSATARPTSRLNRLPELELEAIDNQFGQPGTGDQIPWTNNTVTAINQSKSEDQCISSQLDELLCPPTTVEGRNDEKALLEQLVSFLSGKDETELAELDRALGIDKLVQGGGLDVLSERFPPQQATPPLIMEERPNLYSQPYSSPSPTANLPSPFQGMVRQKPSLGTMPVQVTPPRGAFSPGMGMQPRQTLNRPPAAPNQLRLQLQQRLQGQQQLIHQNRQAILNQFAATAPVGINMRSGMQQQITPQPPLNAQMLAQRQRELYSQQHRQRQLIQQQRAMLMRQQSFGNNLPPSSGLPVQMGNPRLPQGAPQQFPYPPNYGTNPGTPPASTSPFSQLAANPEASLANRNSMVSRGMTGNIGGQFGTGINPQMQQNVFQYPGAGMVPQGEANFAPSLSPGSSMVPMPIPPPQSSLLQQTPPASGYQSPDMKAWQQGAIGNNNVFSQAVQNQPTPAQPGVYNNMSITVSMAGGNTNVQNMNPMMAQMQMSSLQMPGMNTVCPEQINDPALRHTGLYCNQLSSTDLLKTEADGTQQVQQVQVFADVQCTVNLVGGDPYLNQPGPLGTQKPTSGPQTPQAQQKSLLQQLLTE
row,IC50,SMILES
1,9.71 µM,COC(=O)c1cccc2c1-c1ccccc1/C2=N/O
2,inactive,COc1ccc(-c2cc(=O)oc3c(C)c(O)c(CN(C)C)cc23)cc1
3,> 35.9 µM (inactive),CCOc1ccccc1-n1c(SCC(=O)Nc2ccccc2C(=O)O)nc2ccccc2c1=O
4,9.54 µM,O=C(Nc1ccncc1)c1ccccc1[N+](=O)[O-]
5,inactive,COc1ccccc1-c1cc2nc(-c3ccccc3)cc(N3CCN(C(=O)c4ccco4)CC3)n2n1
6,inactive,CC(C)n1c(SCC(=O)Nc2nc3c(s2)CCCC3)nc2c1c(=O)n(C)c(=O)n2C
7,inactive,CN(C)c1ccc(/C=C/c2nc3ccccc3s2)cc1
8,> 35.9 µM (inactive),Cc1ccc(S(=O)(=O)NC(CC(C)C)C(=O)NCC(c2ccco2)N2CCCCC2)cc1 (configuration not stated)
9,inactive,COc1cccc(NC(=O)CN(C)CC(=O)Nc2ccc(Cl)cc2[N+](=O)[O-])c1
10,4.94 µM,O=C(CCC(=O)Nc1ccc(Br)cc1)N/N=C/c1ccccc1O
11,> 35.9 µM (inactive),C=CCOc1ccc(/C=C2\SC(=S)N(CCC(=O)O)C2=O)cc1
12,> 35.9 µM (inactive),CC(=O)/C(N=Nc1ccc2c(c1)OCCO2)=C(\C)O
13,7.5 µM,NC(=O)c1cc(Sc2ccccc2)nc2ccccc12
14,6.97 µM,COc1cc2c(cc1OC)C(NC(=O)C(F)(F)F)CNC2=O (configuration not stated)
15,inactive,CCCCC(=O)Nc1cccn2ncnc12
16,6.27 µM,CCc1ccc(/C=C2\SC(=S)N(CCCC(=O)NCCCN3CCOCC3)C2=O)cc1
17,inactive,CCOc1cc(C(N)=O)cc(Br)c1OC
18,> 35.9 µM (inactive),CN(Cc1cnc2nc(N)nc(N)c2n1)c1ccc(C(=O)NC(CCC(=O)O)C(=O)O)c2ccccc12 (configuration not stated)
19,inactive,C=CCc1ccccc1OCC(=O)N/N=C/c1ccc(OC(C)=O)cc1OC(C)=O
20,> 35.9 µM (inactive),CC(=O)NC(c1cc(Cl)c2cccnc2c1O)C(C)C (configuration not stated)
21,inactive,C=CCn1c(Oc2ccccc2F)nc2c1c(=O)n(C)c(=O)n2C

row,IC50,SMILES
1,inactive,c1nc2sc3c(c2c2nnnn12)CCCC3
2,> 35.9 µM (inactive),CC(C)(C)c1cc(C(=O)N/N=C/c2ccc(O)cc2)n(-c2ccccc2)n1
3,> 35.9 µM (inactive),O=C(O)c1ccccc1-c1c2cc(I)c(=O)c(I)c-2oc2c(I)c(O)c(I)cc12
4,> 35.9 µM (inactive),O=C(COC(=O)c1ccc[nH]c1=O)Nc1ccc(N2CCCCC2)cc1
5,> 35.9 µM (inactive),Cc1ccc(OCC(=O)c2cc(C)n(Cc3cccs3)c2C)c([N+](=O)[O-])n1
6,7.13 µM,CCOC(=O)c1cccc2c1-c1ccccc1/C2=N/O
7,> 35.9 µM (inactive),O=C1CCC2S/C(=C/Nc3ccc(C(F)(F)F)cc3)C(=O)N12 (configuration not stated)
8,inactive,O=C(CCl)NC(Cc1ccccc1)c1ccccc1 (configuration not stated)
9,> 11.9 µM (inactive),Nc1ccn(C2OC(CO)C(O)C2O)c(=O)n1 (configuration not stated)
10,> 35.9 µM (inactive),CCN1CCN(C(=S)c2ccc(-c3ccccc3)cc2)CC1
11,inactive,COc1ccccc1CNC(=O)C(=O)NCCC1CCCCN1S(=O)(=O)c1ccc(C)cc1 (configuration not stated)
12,inactive,COc1ccc(C(O)(C(C)C)C(CN2CCOCC2)c2ccc(Cl)cc2)cc1 (configuration not stated)
13,6.73 µM,O=C(CCCOc1ccc(Cl)cc1Cl)N/N=C/c1ccccc1O
14,inactive,c1cc2c(cn1)cnc1cscc12
15,inactive,Oc1ccc(C=NNc2ccccn2)c(O)c1
16,inactive,Cc1c(CC(=O)NCCCC(=O)O)c(=O)oc2cc3c(cc12)CCC(C)(C)O3
17,> 35.9 µM (inactive),N#Cc1c2ccc(O)cc2n2ccccc12
18,> 35.9 µM (inactive),O=C(Nc1cccnc1)c1ccc(C(=O)Nc2cccnc2)cc1
19,inactive,Cc1ccc(S(=O)(=O)N2[C@@H](c3ccc(C(C)(C)C)cc3)C(C(=O)O)=CC[C@H]2c2ccc(Cl)cc2)cc1
20,> 35.9 µM (inactive),CCc1ccc(-c2nc(CSCC(=O)NCc3ccco3)c(C)o2)cc1
21,> 35.8 µM (inactive),CCC(=O)Oc1c(C(=O)CC)cc2c(C)cc(=O)oc2c1C
